“And” between values parts separate entries of the source, which are not always exact repeats. Equal values may be shown once. The source made the active and inactive calls.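 How the source made its calls: active means IC50 of 25 µM or lower, counted as toxic to worms; inactive means the rest.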
These compounds were tested on C. elegans VP596 worm health composite score, 20-22 h (assay: C. elegans worm health toxicity scoring, SAR follow-up, cytotoxicity control for SKN-1 inhibitor project, whole organism, strain VP596, composite health score, round 3 (AID 743062)).

**Q.** With COc1cccc(-c2csc(-c3ccncc3)n2)c1 as the compound, how does the IC50 read?
**A.** The IC50 was 55.7 µM (inactive).

**Q.** How did the IC50 turn out when Clc1ccc(-c2csc(-c3ccncc3)n2)cc1Cl was run?
**A.** The IC50 was 10.5 µM and 33.7 µM (inactive).

**Q.** Which IC50 does the source give for Cc1cccc(-c2csc(-c3ccncc3)n2)c1 here?
**A.** The IC50 was 50.8 µM (inactive).

**Q.** Which IC50 does the source give for COc1ccc(-c2csc(-c3ccccc3)n2)cc1 here?
**A.** Its IC50 is > 64 µM (inactive).

**Q.** c1ccc(-c2csc(-c3ccccn3)n2)cc1 was tested. Which IC50 did it give?
**A.** The IC50 was > 64 µM (inactive).

**Q.** Fc1ccc(-c2csc(-c3ccncc3)n2)cc1 was tested. Which IC50 did it give?
**A.** Its IC50 is 53.6 µM (inactive).

**Q.** With COc1ccccc1-c1csc(-c2ccncc2)n1 as the compound, how does the IC50 read?
**A.** The IC50 was 48.4 µM (inactive).

**Q.** With c1ccc(-c2csc(-c3ccncc3)n2)cc1 as the compound, how does the IC50 read?
**A.** The IC50 was 42.4 µM (inactive).

**Q.** COC(=O)c1ccc(-c2csc(-c3ccncc3)n2)cc1 was tested. Which IC50 did it give?
**A.** Its IC50 is > 64 µM (inactive).

**Q.** How did the IC50 turn out when c1ccc(-c2csc(C3CCNCC3)n2)cc1 was run?
**A.** The IC50 was > 64 µM (inactive).

**Q.** With COc1ccc(-c2nc(-c3ccncc3)sc2C)cc1 as the compound, how does the IC50 read?
**A.** Its IC50 is > 64 µM (inactive).

**Q.** For COc1ccc(-c2csc(-c3cccnc3)n2)cc1, which IC50 is on record?
**A.** Its IC50 is 36.4 µM (inactive).

**Q.** With Cc1ccccc1-c1csc(-c2ccncc2)n1 as the compound, how does the IC50 read?
**A.** Its IC50 is 55.7 µM (inactive).

**Q.** c1cc(-c2nc(-c3nccs3)cs2)ccn1 was tested. Which IC50 did it give?
**A.** Its IC50 is > 64 µM (inactive).

**Q.** How did the IC50 turn out when Clc1ccc(-c2csc(-c3ccccn3)n2)cc1 was run?
**A.** The IC50 was 23.1 µM and > 64 µM (inactive).

**Q.** Which IC50 does the source give for Cc1sc(-c2ccncc2)nc1-c1ccccc1 here?
**A.** The IC50 was 48.3 µM (inactive).

**Q.** Which IC50 does the source give for Cc1sc(-c2ccncc2)nc1-c1ccc(F)cc1 here?
**A.** Its IC50 is > 64 µM (inactive).

**Q.** Which IC50 does the source give for CCCc1cc(-c2nc(-c3ccc(C)cc3)cs2)ccn1 here?
**A.** The IC50 was > 64 µM (inactive).

**Q.** With Cc1ccc(-c2csc(-c3ccccn3)n2)cc1 as the compound, how does the IC50 read?
**A.** Its IC50 is > 64 µM (inactive).

**Q.** Which IC50 does the source give for COc1ccc(-c2csc(-c3ccncc3)n2)cc1 here?
**A.** Its IC50 is > 64 µM (inactive).

**Q.** For Clc1ccc(-c2csc(-c3ccccc3)n2)cc1, which IC50 is on record?
**A.** Its IC50 is > 64 µM (inactive).

**Q.** With N#Cc1ccc(-c2csc(-c3ccncc3)n2)cc1 as the compound, how does the IC50 read?
**A.** Its IC50 is 37.2 µM (inactive).

**Q.** Which IC50 does the source give for Cc1csc(-c2ccncc2)n1 here?
**A.** The IC50 was > 64 µM (inactive).

**Q.** CC(C)(C)c1csc(-c2ccncc2)n1 was tested. Which IC50 did it give?
**A.** The IC50 was > 64 µM (inactive).

**Q.** For Cc1sc(C2CCNCC2)nc1-c1ccccc1, which IC50 is on record?
**A.** The IC50 was > 64 µM (inactive).

**Q.** For COc1ccc(-c2csc(C3CCNCC3)n2)cc1, which IC50 is on record?
**A.** The IC50 was > 64 µM (inactive).

**Q.** With Cc1ccc(-c2csc(-c3cccnc3)n2)cc1 as the compound, how does the IC50 read?
**A.** Its IC50 is > 64 µM (inactive).

**Q.** For Clc1cccc(-c2csc(-c3ccncc3)n2)c1, which IC50 is on record?
**A.** Its IC50 is 16 µM.

**Q.** For Fc1ccc(-c2csc(-c3cccnc3)n2)cc1, which IC50 is on record?
**A.** Its IC50 is 35.6 µM (inactive).

**Q.** With FC(F)(F)c1ccc(-c2csc(-c3ccncc3)n2)cc1 as the compound, how does the IC50 read?
**A.** Its IC50 is 20.3 µM.

**Q.** Cc1ccc(-c2csc(C3CCNCC3)n2)cc1 was tested. Which IC50 did it give?
**A.** The IC50 was > 64 µM (inactive).

**Q.** With Clc1ccc(-c2csc(-c3ccncc3)n2)cc1 as the compound, how does the IC50 read?
**A.** The IC50 was 32.7 µM (inactive) and 11.5 µM.

**Q.** With Fc1ccc(-c2csc(-c3ccccc3)n2)cc1 as the compound, how does the IC50 read?
**A.** The IC50 was 28.4 µM (inactive).

**Q.** How did the IC50 turn out when Cc1ccc(-c2nc(-c3ccncc3)sc2C)cc1 was run?
**A.** Its IC50 is > 64 µM (inactive).

**Q.** Which IC50 does the source give for c1ccc(-c2csc(-c3cccnc3)n2)cc1 here?
**A.** Its IC50 is 53.9 µM (inactive).

**Q.** How did the IC50 turn out when Fc1ccc(-c2csc(C3CCNCC3)n2)cc1 was run?
**A.** Its IC50 is > 64 µM (inactive).

**Q.** For Clc1ccccc1-c1csc(-c2ccncc2)n1, which IC50 is on record?
**A.** Its IC50 is 33.2 µM (inactive).

**Q.** CCCc1cc(-c2nc(-c3ccc(NS(C)(=O)=O)cc3)cs2)ccn1 was tested. Which IC50 did it give?
**A.** Its IC50 is > 64 µM (inactive).

**Q.** With Cc1ccc(-c2csc(-c3ccccc3)n2)cc1 as the compound, how does the IC50 read?
**A.** Its IC50 is > 64 µM (inactive).

**Q.** With COc1ccc(-c2csc(-c3ccccn3)n2)cc1 as the compound, how does the IC50 read?
**A.** Its IC50 is 21.4 µM.

**Q.** Which IC50 does the source give for Fc1ccc(-c2csc(-c3ccccn3)n2)cc1 here?
**A.** Its IC50 is 42 µM (inactive).

**Q.** Clc1ccc(-c2csc(-c3cccnc3)n2)cc1 was tested. Which IC50 did it give?
**A.** The IC50 was 11.1 µM and 29.4 µM (inactive).

**Q.** With Cc1ccc(-c2csc(-c3ccncc3)n2)cc1 as the compound, how does the IC50 read?
**A.** Its IC50 is 54.6 µM (inactive).

**Q.** With Cc1sc(-c2ccncc2)nc1-c1ccc(Cl)cc1 as the compound, how does the IC50 read?
**A.** The IC50 was > 64 µM (inactive).

**Q.** How did the IC50 turn out when Clc1ccc(-c2csc(-c3ccncc3)n2)c(Cl)c1 was run?
**A.** Its IC50 is > 64 µM (inactive).

**Q.** c1cc(-c2nc(C3CC3)cs2)ccn1 was tested. Which IC50 did it give?
**A.** Its IC50 is > 64 µM (inactive).

**Q.** With Clc1ccc(-c2csc(C3CCNCC3)n2)cc1 as the compound, how does the IC50 read?
**A.** The IC50 was > 64 µM (inactive).

**Q.** With c1ccc(-c2nc(-c3cccnc3)cs2)cc1 as the compound, how does the IC50 read?
**A.** Its IC50 is > 64 µM (inactive).
